Results: US12319664B2, “Herbicidally active 3-phenylisoxazoline-5-carboxamides of cyclopentenylcarboxylic acid derivatives” (Bayer Aktiengesellschaft, priority 2018, dated 2025)

What was measured:
ALOMY [1] = assay: Pre-emergence herbicidal action against ALOMY; format: in vivo, Alopecurus myosuroides; settings: application rate 80 g/ha, scored visually after about 3 weeks vs untreated controls (100% = plants have died, 0% = like control plants)
Source text: (§1) 1. Pre-emergence herbicidal action against harmful plants and crop plant compatibility Seeds of monocotyledonous and dicotyledonous weed plants and crop plants are placed in plastic or wood-fibre pots and covered with soil. The compounds of the invention, formulated in the form of wettable powders (WP) or as emulsion concentrates (EC), are then applied onto the surface of the covering soil as aqueous suspension or emulsion with addition of 0.5% additive at a water application rate of 600 l/ha (converted). After the treatment, the pots are placed in a greenhouse and kept under good growth conditions for the trial plants. After about 3 weeks, the effect of the preparations is scored visually in comparison with untreated controls as percentages. For example, 100% activity=the plants have died, 0% activity=like control plants. [table]

AVEFA [2] = assay: Pre-emergence herbicidal action against AVEFA; format: in vivo, Avena fatua; settings: application rate 80 g/ha, scored visually after about 3 weeks vs untreated controls (100% = plants have died, 0% = like control plants)
Source text: as §1

ECHCG [3] = assay: Pre-emergence herbicidal action against ECHCG; format: in vivo, Echinochloa crus-galli; settings: application rate 80 g/ha, scored visually after about 3 weeks vs untreated controls (100% = plants have died, 0% = like control plants)
Source text: as §1

LOLRI [4] = assay: Pre-emergence herbicidal action against LOLRI; format: in vivo, Lolium rigidum; settings: application rate 80 g/ha, scored visually after about 3 weeks vs untreated controls (100% = plants have died, 0% = like control plants)
Source text: as §1

SETVI [5] = assay: Pre-emergence herbicidal action against SETVI; format: in vivo, Setaria viridis; settings: application rate 80 g/ha, scored visually after about 3 weeks vs untreated controls (100% = plants have died, 0% = like control plants)
Source text: as §1

AMARE [6] = assay: Pre-emergence herbicidal action against AMARE; format: in vivo, Amaranthus retroflexus; settings: application rate 80 g/ha
Source text: as §1

PHBPU [7] = assay: Pre-emergence herbicidal action against PHBPU; format: in vivo, Pharbitis purpurea; settings: application rate 80 g/ha
Source text: as §1

POLCO [8] = assay: Pre-emergence herbicidal action against POLCO; format: in vivo, Polygonum convolvulus; settings: application rate 80 g/ha
Source text: as §1

STEME [9] = assay: Pre-emergence herbicidal action against STEME; format: in vivo, Stellaria media; settings: application rate 80 g/ha
Source text: as §1

VIOTR [10] = assay: Pre-emergence herbicidal action against VIOTR; format: in vivo, Viola tricolor; settings: application rate 80 g/ha
Source text: as §1

VERPE [11] = assay: Pre-emergence herbicidal action against VERPE; format: in vivo, Veronica persica; settings: application rate 80 g/ha
Source text: as §1

HORMU [12] = assay: Pre-emergence herbicidal action against HORMU; format: in vivo, Hordeum murinum; settings: application rate 80 g/ha
Source text: as §1

ALOMY [13] = assay: Post-emergence herbicidal action against ALOMY; format: in vivo, Alopecurus myosuroides; settings: application rate 80 g/ha, rated visually after about 3 weeks
Method in brief: (§2)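 Foliar application at 600 l/ha water, 0.5% additive, WP or EC formulation; plants at one-leaf stage in greenhouse sandy loam pots. Scored visually ~3 weeks post-treatment, 0–100% relative to untreated plants.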

AVEFA [14] = assay: Post-emergence herbicidal action against AVEFA; format: in vivo, Avena fatua; settings: application rate 80 g/ha, rated visually after about 3 weeks
Method in brief: as §2

ECHCG [15] = assay: Post-emergence herbicidal action against ECHCG; format: in vivo, Echinochloa crus-galli; settings: application rate 80 g/ha, rated visually after about 3 weeks
Method in brief: as §2

LOLRI [16] = assay: Post-emergence herbicidal action against LOLRI; format: in vivo, Lolium rigidum; settings: application rate 80 g/ha, rated visually after about 3 weeks
Method in brief: as §2

SETVI [17] = assay: Post-emergence herbicidal action against SETVI; format: in vivo, Setaria viridis; settings: application rate 80 g/ha, rated visually after about 3 weeks
Method in brief: as §2

AMARE [18] = assay: Post-emergence herbicidal action against AMARE; format: in vivo, Amaranthus retroflexus; settings: application rate 80 g/ha, rated visually about 3 weeks after treatment
Method in brief: as §2

PHBPU [19] = assay: Post-emergence herbicidal action against PHBPU; format: in vivo, Pharbitis purpurea; settings: application rate 80 g/ha, rated visually about 3 weeks after treatment
Method in brief: as §2

POLCO [20] = assay: Post-emergence herbicidal action against POLCO; format: in vivo, Polygonum convolvulus; settings: application rate 80 g/ha, rated visually about 3 weeks after treatment
Method in brief: as §2

STEME [21] = assay: Post-emergence herbicidal action against STEME; format: in vivo, Stellaria media; settings: application rate 80 g/ha, rated visually about 3 weeks after treatment
Method in brief: as §2

HORMU [22] = assay: Post-emergence herbicidal action against HORMU; format: in vivo, Hordeum murinum; settings: application rate 80 g/ha
Method in brief: as §2

VERPE [23] = assay: Post-emergence herbicidal action against VERPE; format: in vivo, Veronica persica; settings: application rate 80 g/ha
Method in brief: as §2

VIOTR [24] = assay: Post-emergence herbicidal action against VIOTR; format: in vivo, Viola tricolor; settings: application rate 80 g/ha, rated visually about 3 weeks after treatment
Method in brief: as §2

ABUTH = assay: Post-emergence herbicidal action against ABUTH; format: in vivo, Abutilon theophrasti; settings: application rate 80 g/ha, rated visually about 3 weeks after treatment
Method in brief: as §2

Structure (SMILES)	Herbicidal action against [%] ALOMY (ALOMY [1])	Herbicidal action against [%] AVEFA (AVEFA [2])	Herbicidal action against [%] ECHCG (ECHCG [3])	Herbicidal action against [%] LOLRI (LOLRI [4])	Herbicidal action against [%] SETVI (SETVI [5])	Herbicidal action against [%] AMARE (AMARE [6])	Herbicidal action against [%] PHBPU (PHBPU [7])	Herbicidal action against [%] POLCO (POLCO [8])	Herbicidal action against [%] STEME (STEME [9])	Herbicidal action against [%] VIOTR (VIOTR [10])	Herbicidal action against [%] VERPE (VERPE [11])	Herbicidal action against [%] HORMU (HORMU [12])	Herbicidal action against [%] ALOMY (ALOMY [13])	Herbicidal action against [%] AVEFA (AVEFA [14])	Herbicidal action against [%] ECHCG (ECHCG [15])	Herbicidal action against [%] LOLRI (LOLRI [16])	Herbicidal action against [%] SETVI (SETVI [17])	Herbicidal action against [%] AMARE (AMARE [18])	Herbicidal action against [%] STEME (STEME [21])	Herbicidal action against [%] HORMU (HORMU [22])	other results
COC(=O)C1=CC[C@H](NC(=O)C2(C)CC(c3cccc(F)c3)=NO2)C1 (stereo partly drawn) [III-04]	100%	90%	90%	100%	100%	90%	90%	100%	90%	90%	90%	100%	90%	100%	80%	90%	80%	80%	80%	100%	Herbicidal action against [%] PHBPU (PHBPU [19]): 90%; Herbicidal action against [%] POLCO (POLCO [20]): 80%
CC1(C(=O)N[C@H]2CC=C(C(=O)O)C2)CC(c2cccc(F)c2)=NO1 (stereo partly drawn) [III-02]	100%	80%	–	100%	–	80%	80%	–	80%	–	90%	100%	80%	90%	90%	90%	80%	80%	80%	100%	Herbicidal action against [%] PHBPU (PHBPU [19]): 80%; Herbicidal action against [%] VERPE (VERPE [23]): 80%
CC1(C(=O)NC2C=CC(C(=O)N3CCCCO3)C2)CC(c2cc(F)cc(F)c2)=NO1 (mixture of isomers) [II-07]	100%	80%	90%	100%	100%	100%	–	100%	100%	100%	100%	90%	80%	80%	80%	80%	–	–	90%	–	Herbicidal action against [%] VIOTR (VIOTR [24]): 80%; Herbicidal action against [%] VERPE (VERPE [23]): 80%
CCOC(=O)C1=CC[C@H](NC(=O)C2(C)CC(c3cccc(F)c3)=NO2)C1 (stereo partly drawn) [III-06]	100%	80%	90%	100%	100%	–	80%	100%	90%	90%	80%	90%	90%	80%	80%	90%	80%	80%	90%	90%	Herbicidal action against [%] ABUTH (ABUTH): 80%; Herbicidal action against [%] POLCO (POLCO [20]): 80%
CC1(C(=O)N[C@H]2C=C[C@@H](C(=O)N3CCCO3)C2)CC(c2cc(F)cc(F)c2)=NO1 (stereo partly drawn) [II-06]	90%	90%	90%	100%	100%	100%	–	80%	90%	100%	90%	100%	90%	80%	80%	90%	80%	80%	80%	80%	Herbicidal action against [%] ABUTH (ABUTH): 80%; Herbicidal action against [%] PHBPU (PHBPU [19]): 80%; Herbicidal action against [%] POLCO (POLCO [20]): 80%; Herbicidal action against [%] VERPE (VERPE [23]): 80%
CC1(C(=O)N[C@@H]2CC=C(C(=O)O)C2)CC(c2cccc(F)c2)=NO1 (mixture of isomers) [III-01, (4R)-4-[[[(5SR)-3-(3-fluorophenyl)-5-methyl-4H-1,2-oxazol-5-yl]carbonyl]amino]cyclopentene-1-carboxylic acid]	–	–	–	–	–	–	–	–	–	–	90%	80%	–	80%	–	–	–	–	–	–	–
